Series [1] has as its target T1, Cytochrome P450 1A2 (Homo sapiens, UniProt P05177).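 Further: PubChem cytochrome P450 panel assay, CYP1A2 panel member.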
T1 sequence (P05177 whole entry): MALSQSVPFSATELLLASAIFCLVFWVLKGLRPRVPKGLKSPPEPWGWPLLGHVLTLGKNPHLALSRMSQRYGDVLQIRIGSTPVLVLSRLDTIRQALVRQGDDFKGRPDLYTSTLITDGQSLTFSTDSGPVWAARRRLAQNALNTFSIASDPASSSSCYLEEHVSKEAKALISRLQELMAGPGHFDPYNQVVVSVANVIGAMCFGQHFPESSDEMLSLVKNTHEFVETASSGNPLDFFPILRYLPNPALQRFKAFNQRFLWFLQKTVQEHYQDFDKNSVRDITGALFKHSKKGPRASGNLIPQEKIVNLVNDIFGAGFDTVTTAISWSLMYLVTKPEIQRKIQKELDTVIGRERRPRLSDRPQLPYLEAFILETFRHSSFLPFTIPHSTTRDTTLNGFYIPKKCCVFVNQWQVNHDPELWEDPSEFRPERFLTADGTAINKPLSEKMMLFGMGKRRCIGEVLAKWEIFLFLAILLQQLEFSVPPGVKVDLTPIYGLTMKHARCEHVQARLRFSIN

For series [2], the target named is T2, Heat shock factor protein 1 (Mus musculus, UniProt P38532).
T2 sequence (P38532 whole entry): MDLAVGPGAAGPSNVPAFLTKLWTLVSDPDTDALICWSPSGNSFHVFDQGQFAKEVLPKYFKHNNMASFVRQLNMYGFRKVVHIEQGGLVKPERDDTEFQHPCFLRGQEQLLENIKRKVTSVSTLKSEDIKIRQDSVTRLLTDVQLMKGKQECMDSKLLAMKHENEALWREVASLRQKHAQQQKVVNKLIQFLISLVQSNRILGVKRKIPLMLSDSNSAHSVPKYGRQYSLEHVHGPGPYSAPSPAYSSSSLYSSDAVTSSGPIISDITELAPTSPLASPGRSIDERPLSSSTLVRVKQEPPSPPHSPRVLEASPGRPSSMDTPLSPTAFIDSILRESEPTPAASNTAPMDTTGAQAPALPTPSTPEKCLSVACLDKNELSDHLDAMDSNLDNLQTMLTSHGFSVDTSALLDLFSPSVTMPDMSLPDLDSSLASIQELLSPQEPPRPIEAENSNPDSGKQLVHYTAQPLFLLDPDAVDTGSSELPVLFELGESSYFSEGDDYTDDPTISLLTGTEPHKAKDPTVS
In words: inhibition of MG132-induced HSE-luciferase signal, confirmation, cell-based, NIH3T3, luminescence, dose retest (AID 2382).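 Further: NIH3T3 fibroblasts with HSF1-driven luciferase reporter stressed by proteasome inhibitor MG132; luminescence from HSF1-driven luciferase expression after 8 hours of MG132 stress.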 The format is functional.

The target of series [3] is Cytochrome P450 2D6 (Homo sapiens, UniProt P10635).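 Further: CYP2D6 member of a cytochrome P450 panel assay.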
The target of series [4] is T3, Kappa-type opioid receptor (Homo sapiens, UniProt P41145). The experiment in a line: SAR analysis of small molecule agonists of the kappa opioid receptor via a luminescent beta-arrestin assay - Set 3. [Related pubchem assays (depositor defined):AID1777, AID1785, AID1786, AID1966, AID2133, AID2136, AID2284, AID2500]. The class given is functional.
Series [5] has as its target Phospholipase A2 (Homo sapiens, UniProt P04054). The format is functional.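 Further: confirmatory dose-response counterscreen on phospholipase A2, testing hits that came from an ultra-high-throughput screen for ATG4B inhibitors.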
The target in series [6] is T4, Induced myeloid leukemia cell differentiation protein Mcl-1 (Homo sapiens, UniProt Q07820). The format is functional.
A short description of series [7]: inhibitors of Bluetongue virus cytopathic effect, confirmation, arbovirus, BSR cells (AID 1250).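 Further: protection from viral cytopathic effect measured as cell viability by ATP luminescence.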 The class given is functional.
Series [8] addresses T5, Voltage-gated N-type calcium channel alpha-1B subunit/Amyloid beta A4 precursor protein-binding family A member 1 (Homo sapiens, UniProt Q00975+Q02410). The class given is protein assay.
The target in series [9] is NS3 (Hepatitis C virus, UniProt A3EZJ3). In words: PubChem AID 2173. Also on record: species or system Hepacivirus hominis.
Series [10] concerns the target T6, Dual specificity protein phosphatase 3 (Homo sapiens, UniProt P51452). In words: VHR1 phosphatase inhibitors, primary screen, biochemical, absorbance, uHTS (AID 1654).
Series [11] has as its target T7, Cysteine protease ATG4B (Homo sapiens, UniProt Q9Y4P1).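 Further: Fluorescence-based dose-response confirmation assay measuring inhibition of ATG4B activity.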
T7 sequence (Q9Y4P1 whole entry): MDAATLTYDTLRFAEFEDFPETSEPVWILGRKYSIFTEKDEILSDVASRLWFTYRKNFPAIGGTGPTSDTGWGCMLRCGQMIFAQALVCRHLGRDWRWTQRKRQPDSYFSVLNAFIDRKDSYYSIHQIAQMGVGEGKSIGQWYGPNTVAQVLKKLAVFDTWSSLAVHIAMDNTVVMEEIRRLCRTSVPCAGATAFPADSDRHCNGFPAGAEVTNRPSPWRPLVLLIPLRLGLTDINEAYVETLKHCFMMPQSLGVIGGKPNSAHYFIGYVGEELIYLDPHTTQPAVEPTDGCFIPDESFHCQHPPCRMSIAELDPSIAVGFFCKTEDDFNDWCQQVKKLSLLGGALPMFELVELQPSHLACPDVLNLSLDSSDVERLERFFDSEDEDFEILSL
The class given is functional.

The target of series [12] is Bcl-2-like protein 1 (Homo sapiens, UniProt Q07817). The experiment in a line: BCL-XL inhibitors, dose response, selectivity assay for MCL1 inhibitor project, biochemical, fluorescence polarization, 1536-well (AID 2218).
In series [13] the target is Eukaryotic translation initiation factor 4E (Mus musculus, UniProt P63073). The experiment in a line: eIF4E–eIF4G protein interaction inhibitors, dose response, biochemical, TR-FRET (AID 855).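 Further: potency for disrupting eIF4E binding to eIF4GI seen as loss of FRET.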 The format is functional. A general note: Time-resolved FRET reads energy transfer from a long-lived donor to a nearby acceptor.
Series [14] deals with T5, Voltage-gated N-type calcium channel alpha-1B subunit/Amyloid beta A4 precursor protein-binding family A member 1. The format is protein assay. The source holds these as a separate data set.
Series [15] deals with T4, Induced myeloid leukemia cell differentiation protein Mcl-1. The experiment in a line: MCL1-BIM BH3 interaction inhibitors, dose response, biochemical, fluorescence polarization, BIM-BH3 peptide, 1536-well (AID 2217). Background: Polarisation of emitted light reports the rotation of a fluorescent probe.
Series [16] deals with Dual specificity protein phosphatase 6 (Rattus norvegicus, UniProt Q64346). In words: MKP-3 phosphatase inhibitors, primary screen, biochemical, rat enzyme, in vitro (AID 425).
For series [17], the target named is T6, Dual specificity protein phosphatase 3. The experiment in a line: VHR1 phosphatase inhibitors, biochemical (AID 1878).
Series [18] concerns the target T3, Kappa-type opioid receptor. In words: KOR antagonists by imaging, SAR follow-up, image-based (AID 2348). The class given is functional.
In series [19] the target is T8, Mu-type opioid receptor (Homo sapiens, UniProt P35372). In words: MOR agonists by imaging, SAR follow-up, image-based (AID 2352). The format is functional.
In series [20] the target is T9, Delta-type opioid receptor (Homo sapiens, UniProt P41143). The experiment in a line: DOR antagonists, SAR follow-up, image-based (AID 2357). The format is functional.
The target of series [21] is T3, Kappa-type opioid receptor. In words: kappa opioid receptor blockers, cell-based, luminescence, beta-arrestin, SAR follow-up (AID 2285). The format is functional.
Series [22] has as its target T9, Delta-type opioid receptor. The experiment in a line: DOR agonists, SAR follow-up, image-based (AID 2370). The class given is functional.
For series [23], the target named is T3, Kappa-type opioid receptor. In words: KOR agonist analogs, imaging readout, SAR follow-up, image-based (AID 2359). The class given is functional.
For series [24], the target named is T8, Mu-type opioid receptor. The experiment in a line: MOR antagonists, SAR follow-up, image-based (AID 2420).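 Further: compounds added before stimulation of receptor with agonist DAMGO.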 The format is functional.
Series [25] deals with CAAX prenyl protease 1 (Saccharomyces cerevisiae S288c, UniProt P47154). In words: Ste24 protease inhibitors, dose response, biochemical, S. cerevisiae, plate reader, cherry-pick (AID 488815).
Series [26] deals with Trypsin (Sus scrofa, UniProt P00761). The experiment in a line: porcine trypsin inhibitors, dose response, selectivity assay for Rce1 protease inhibitor project, biochemical, quenched peptide fluorescence, cherry-pick (AID 488789).
Series [27] concerns the target T10, G-protein coupled receptor 35 (Homo sapiens, UniProt Q9HC97). In words: SAR analysis of Antagonists of the GPR35 Receptor using an Image-Based Assay - Set 6. [Related pubchem assays (depositor defined):AID2013, AID2026]. The class given is functional.
The target of series [28] is T11, Cannabinoid receptor 1 (Homo sapiens, UniProt P21554). In words: SAR analysis of antagonists of the Cannabinoid Receptor 1 using an Image-Based Assay - Set 4. [Related pubchem assays (depositor defined):AID2013, AID2026]. The format is functional.
Series [29] addresses T11, Cannabinoid receptor 1. In words: SAR analysis of agonists of the Cannabinoid Receptor 1 using an Image-Based Assay - Set 4. [Related pubchem assays (depositor defined):AID2013, AID2026]. The class given is functional.
Series [30] deals with G-protein coupled receptor 55 (Homo sapiens, UniProt Q9Y2T6). In words: SAR Analysis of Selective Antagonists of GPR55 using an Image-Based Assay - Set 4. [Related pubchem assays (depositor defined):AID2013, AID2026]. The class given is functional.
Series [31] has as its target T12, Cannabinoid receptor 2 (Homo sapiens, UniProt P34972). The experiment in a line: SAR analysis of agonists of the Cannabinoid Receptor 2 using an Image-Based Assay - Set 3. [Related pubchem assays (depositor defined):AID2013, AID2026]. The class given is functional.
Series [32] addresses T10, G-protein coupled receptor 35. The experiment in a line: SAR analysis of Agonists of the GPR35 Receptor using an Image-Based Assay - Set 4. [Related pubchem assays (depositor defined):AID2013, AID2026]. The class given is functional.
Series [33] concerns the target T12, Cannabinoid receptor 2. The experiment in a line: SAR analysis of antagonists of the Cannabinoid Receptor 2 using an Image-Based Assay - Set 3. [Related pubchem assays (depositor defined):AID2013, AID2026]. The class given is functional.

Structures are written as SMILES. “And” between values parts separate entries of the source, which are not always exact repeats. Equal values may be shown once. The source made the active and inactive calls. Where only a bound is given, the exact number is not on record here.

T3 sequence (P41145 whole entry): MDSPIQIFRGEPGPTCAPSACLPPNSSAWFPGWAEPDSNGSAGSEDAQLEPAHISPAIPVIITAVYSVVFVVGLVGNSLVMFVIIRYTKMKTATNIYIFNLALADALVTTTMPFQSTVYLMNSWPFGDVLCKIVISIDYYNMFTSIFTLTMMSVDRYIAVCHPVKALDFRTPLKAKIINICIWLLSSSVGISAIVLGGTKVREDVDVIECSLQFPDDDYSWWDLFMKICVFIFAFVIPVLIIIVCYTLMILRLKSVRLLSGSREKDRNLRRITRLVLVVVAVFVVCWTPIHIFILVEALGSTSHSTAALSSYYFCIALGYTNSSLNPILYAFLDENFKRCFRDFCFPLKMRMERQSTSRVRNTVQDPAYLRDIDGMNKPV
T11 sequence (P21554 whole entry): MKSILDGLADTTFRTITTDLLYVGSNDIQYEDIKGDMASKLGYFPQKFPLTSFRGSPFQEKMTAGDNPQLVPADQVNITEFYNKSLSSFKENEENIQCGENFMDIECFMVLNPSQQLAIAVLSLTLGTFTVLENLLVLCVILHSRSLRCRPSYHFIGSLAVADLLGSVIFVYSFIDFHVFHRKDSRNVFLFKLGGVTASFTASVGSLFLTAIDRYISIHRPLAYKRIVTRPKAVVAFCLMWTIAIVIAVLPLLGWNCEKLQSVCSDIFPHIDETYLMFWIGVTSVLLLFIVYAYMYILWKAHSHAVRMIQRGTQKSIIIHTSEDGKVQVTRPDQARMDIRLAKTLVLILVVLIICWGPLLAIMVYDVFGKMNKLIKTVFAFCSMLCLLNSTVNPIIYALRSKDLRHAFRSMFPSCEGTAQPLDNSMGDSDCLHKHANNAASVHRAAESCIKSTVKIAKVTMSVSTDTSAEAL
T8 sequence (P35372 whole entry): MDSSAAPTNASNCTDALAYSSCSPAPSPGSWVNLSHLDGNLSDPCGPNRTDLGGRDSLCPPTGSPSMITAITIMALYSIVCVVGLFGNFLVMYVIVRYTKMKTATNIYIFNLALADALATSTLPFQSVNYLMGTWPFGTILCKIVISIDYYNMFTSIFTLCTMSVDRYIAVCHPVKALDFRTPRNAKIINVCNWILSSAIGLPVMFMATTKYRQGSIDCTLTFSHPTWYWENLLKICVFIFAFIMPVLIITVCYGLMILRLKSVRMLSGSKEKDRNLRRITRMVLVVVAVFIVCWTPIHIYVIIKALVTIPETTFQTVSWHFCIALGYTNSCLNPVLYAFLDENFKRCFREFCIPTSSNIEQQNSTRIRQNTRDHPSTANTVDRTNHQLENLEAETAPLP
Sequence of Cytochrome P450 2D6 (P10635 whole entry): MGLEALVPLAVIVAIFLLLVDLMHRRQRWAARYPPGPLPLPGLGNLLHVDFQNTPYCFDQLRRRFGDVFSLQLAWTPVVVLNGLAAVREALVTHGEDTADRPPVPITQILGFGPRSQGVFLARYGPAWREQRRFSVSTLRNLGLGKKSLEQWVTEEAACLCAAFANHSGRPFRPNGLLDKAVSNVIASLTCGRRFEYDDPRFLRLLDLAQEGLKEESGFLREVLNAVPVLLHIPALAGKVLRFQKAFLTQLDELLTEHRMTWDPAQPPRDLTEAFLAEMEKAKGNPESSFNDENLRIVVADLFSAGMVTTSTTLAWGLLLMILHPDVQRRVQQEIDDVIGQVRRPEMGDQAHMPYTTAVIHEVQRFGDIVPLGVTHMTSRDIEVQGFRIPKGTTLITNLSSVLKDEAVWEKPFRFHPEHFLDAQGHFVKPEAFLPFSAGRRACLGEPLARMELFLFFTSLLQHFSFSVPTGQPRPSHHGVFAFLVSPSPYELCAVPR
T9 sequence (P41143 whole entry): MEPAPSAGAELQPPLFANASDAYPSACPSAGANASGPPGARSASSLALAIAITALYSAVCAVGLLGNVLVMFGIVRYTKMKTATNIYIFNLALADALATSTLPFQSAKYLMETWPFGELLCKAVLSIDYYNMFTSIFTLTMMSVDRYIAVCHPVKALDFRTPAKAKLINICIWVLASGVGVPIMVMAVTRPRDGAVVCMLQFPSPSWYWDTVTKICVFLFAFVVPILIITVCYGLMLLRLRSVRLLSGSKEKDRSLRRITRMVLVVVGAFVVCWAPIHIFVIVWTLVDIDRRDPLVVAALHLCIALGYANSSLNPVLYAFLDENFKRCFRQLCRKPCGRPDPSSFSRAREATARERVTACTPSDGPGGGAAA
T6 sequence (P51452 whole entry): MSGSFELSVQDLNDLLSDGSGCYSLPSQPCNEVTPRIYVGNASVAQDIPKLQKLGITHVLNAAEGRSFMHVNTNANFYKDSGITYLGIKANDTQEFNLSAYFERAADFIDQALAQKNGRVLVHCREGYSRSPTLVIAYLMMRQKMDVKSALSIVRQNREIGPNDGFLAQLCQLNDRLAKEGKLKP
T10 sequence (Q9HC97 whole entry): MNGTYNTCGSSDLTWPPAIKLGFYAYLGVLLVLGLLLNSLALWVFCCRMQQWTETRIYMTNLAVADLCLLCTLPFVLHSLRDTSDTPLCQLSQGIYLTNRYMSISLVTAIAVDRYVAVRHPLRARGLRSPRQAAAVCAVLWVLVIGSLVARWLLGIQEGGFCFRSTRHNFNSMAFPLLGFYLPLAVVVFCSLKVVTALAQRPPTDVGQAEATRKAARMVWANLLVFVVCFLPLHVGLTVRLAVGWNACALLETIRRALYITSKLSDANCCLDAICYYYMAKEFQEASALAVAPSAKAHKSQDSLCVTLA
T12 sequence (P34972 whole entry): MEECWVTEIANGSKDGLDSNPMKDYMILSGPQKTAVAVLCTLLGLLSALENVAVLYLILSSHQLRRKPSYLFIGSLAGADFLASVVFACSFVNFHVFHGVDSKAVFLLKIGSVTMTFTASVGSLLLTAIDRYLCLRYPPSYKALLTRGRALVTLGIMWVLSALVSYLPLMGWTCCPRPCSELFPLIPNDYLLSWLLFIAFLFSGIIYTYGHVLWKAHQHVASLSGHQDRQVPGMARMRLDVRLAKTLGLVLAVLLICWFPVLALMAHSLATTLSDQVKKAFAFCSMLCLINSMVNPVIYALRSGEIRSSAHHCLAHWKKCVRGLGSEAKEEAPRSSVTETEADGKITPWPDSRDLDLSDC
T4 sequence (Q07820 whole entry): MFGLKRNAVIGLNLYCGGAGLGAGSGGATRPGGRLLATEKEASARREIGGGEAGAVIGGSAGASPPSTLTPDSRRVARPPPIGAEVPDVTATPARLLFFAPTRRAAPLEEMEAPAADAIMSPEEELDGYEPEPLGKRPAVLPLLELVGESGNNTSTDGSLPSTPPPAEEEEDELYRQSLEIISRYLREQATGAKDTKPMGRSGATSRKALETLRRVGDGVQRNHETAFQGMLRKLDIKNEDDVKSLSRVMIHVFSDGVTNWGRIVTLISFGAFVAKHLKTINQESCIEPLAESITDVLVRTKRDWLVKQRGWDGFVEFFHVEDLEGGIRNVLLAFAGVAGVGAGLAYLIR
Sequence of Eukaryotic translation initiation factor 4E (P63073 whole entry): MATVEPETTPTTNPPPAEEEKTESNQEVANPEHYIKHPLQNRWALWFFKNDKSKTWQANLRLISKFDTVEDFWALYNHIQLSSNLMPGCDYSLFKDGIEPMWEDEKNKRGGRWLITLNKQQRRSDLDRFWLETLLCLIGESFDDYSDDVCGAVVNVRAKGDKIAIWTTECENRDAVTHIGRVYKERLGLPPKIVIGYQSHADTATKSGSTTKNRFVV
Sequence of CAAX prenyl protease 1 (P47154 whole entry): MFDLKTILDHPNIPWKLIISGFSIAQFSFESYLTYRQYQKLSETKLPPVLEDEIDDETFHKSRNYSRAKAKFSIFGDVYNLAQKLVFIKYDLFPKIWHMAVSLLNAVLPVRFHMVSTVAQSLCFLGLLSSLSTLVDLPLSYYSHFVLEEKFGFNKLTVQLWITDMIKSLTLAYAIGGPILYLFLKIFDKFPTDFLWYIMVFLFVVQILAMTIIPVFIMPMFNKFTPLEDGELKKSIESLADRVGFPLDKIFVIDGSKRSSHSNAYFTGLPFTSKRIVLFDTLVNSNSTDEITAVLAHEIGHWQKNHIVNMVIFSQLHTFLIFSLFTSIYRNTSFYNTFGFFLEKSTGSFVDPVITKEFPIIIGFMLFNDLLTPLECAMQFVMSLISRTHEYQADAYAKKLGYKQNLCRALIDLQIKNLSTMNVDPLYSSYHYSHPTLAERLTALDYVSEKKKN
Sequence of Bcl-2-like protein 1 (Q07817 whole entry): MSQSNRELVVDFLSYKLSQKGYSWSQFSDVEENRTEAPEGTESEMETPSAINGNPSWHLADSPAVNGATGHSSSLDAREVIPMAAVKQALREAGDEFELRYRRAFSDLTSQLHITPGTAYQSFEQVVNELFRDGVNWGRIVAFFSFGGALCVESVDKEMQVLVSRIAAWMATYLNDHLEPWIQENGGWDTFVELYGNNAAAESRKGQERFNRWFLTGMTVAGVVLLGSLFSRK
Sequence of Dual specificity protein phosphatase 6 (Q64346 whole entry): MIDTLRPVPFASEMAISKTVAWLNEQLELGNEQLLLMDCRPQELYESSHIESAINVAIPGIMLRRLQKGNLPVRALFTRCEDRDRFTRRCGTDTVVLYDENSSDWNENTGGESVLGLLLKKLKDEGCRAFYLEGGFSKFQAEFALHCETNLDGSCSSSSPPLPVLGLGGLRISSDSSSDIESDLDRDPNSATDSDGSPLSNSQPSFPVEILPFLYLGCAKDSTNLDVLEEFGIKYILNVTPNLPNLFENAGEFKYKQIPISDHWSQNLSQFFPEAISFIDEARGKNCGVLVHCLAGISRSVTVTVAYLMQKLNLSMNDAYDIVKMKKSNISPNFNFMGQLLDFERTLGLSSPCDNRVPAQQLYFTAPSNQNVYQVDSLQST
Sequence of Phospholipase A2 (P04054 whole entry): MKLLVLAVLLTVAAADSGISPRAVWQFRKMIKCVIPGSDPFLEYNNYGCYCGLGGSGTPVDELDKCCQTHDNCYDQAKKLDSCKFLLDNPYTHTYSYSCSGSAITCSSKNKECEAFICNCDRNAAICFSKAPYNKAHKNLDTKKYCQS

A word on the AC50: it is the concentration giving half of the maximal activity seen. As usually defined, the EC50 is the midpoint of the concentration-response curve. With `Cc1ccc(N(CC2=NCCN2)c2cccc(O)c2)cc1` [PHENTOLAMINE], the AC50 entry is “inactive” in series [1]; 794 nM (active) and 1.12 µM (active) in series [3]. For the same compound, the EC50 in series [2] was > 195 µM (not active).
On to `CCCCN(Cc1cc2cc(Cl)ccc2[nH]c1=O)C(=O)c1ccccn1`, for which the EC50 in series [4] was 1.87 µM (active).
Usually IC50 stands for the point on the concentration scale where inhibition reaches its midpoint. In the case of `COc1ccc(-n2cccc2/C=C2\C(=N)N3N=C(c4ccco4)SC3=NC2=O)cc1`, the IC50 in [5] is 1.09 µM (active); in [6], 19.3 µM (active); in [7], 33.2 µM (active); in [8] it was 14.1 µM (active); in series [9], 7.79 µM (active); in series [10], 6.65 µM (active). Moreover, the IC50 was 2.73 µM (active) in [11]; > 109 µM (not active) in series [12]; 50 µM (inactive) in series [13]; > 50 µM (inactive) in series [14]; 4.93 µM (active) in series [15]; 9.04 µM (active) in [16]. Also, in series [17], the IC50 is 2.27 µM (active).
For the compound `Oc1ccc(C=NNc2ccnc3cc(Cl)ccc23)cc1O`, the IC50 was 24.8 µM (inactive) in series [18], 18.9 µM (inactive) in series [20], > 10 µM (inactive) in series [21] and > 32 µM (inactive) in [24]. Further, the EC50 in [19], in [22] and in [23] was > 32 µM (inactive) each time.
Take `CCCCNC(=O)C(CC)Sc1nc2sc(C(=O)OC)c(C)c2c(=O)n1N` (stereo not drawn): the AC50 in series [25] is 8.14 µM (active); in [26], 0.985 µM (active).
For the compound `Cc1nnc(-c2cccc3ccccc23)c2cn(-c3cccc(Br)c3)nc12`, the IC50 in series [27] was 28.2 µM (inactive); in series [28], 0.661 µM (active); in series [30], 5.27 µM (active); in [33] it was 3.87 µM (active). The EC50 in series [29], in series [31] and in series [32] was > 32 µM (inactive) throughout.
